Where a SMILES comes first, the peptide text is derived from it.
Experiments:
[1] = system: Gram-positive bacteria; assay: MIC against Gram-positive bacteria; assay type: cell-based; conditions: broth microdilution
Experimental: (§1) The broth microdilution procedure involves preparing CAMHB broth, a bacterial suspension adjusted to McFarland 0.5 (1.5 × 10^8 CFU/mL) and diluted 200×, and a drug solution at 2× the final target concentration. To achieve a 400× final bacterial dilution, add 100 μL of the drug at different doses to a 96-well plate, then 100 μL of the diluted bacterial culture. Measure the initial absorbance (0 h), incubate at 37 °C for 16–18 h, and measure the final absorbance. With no change in absorbance, the MIC signifies the absence of bacterial growth.

[2] = system: E. coil ATCC25922; assay type: cell-based, E. coli
Experimental: as §1

[3] = system: HEK293; assay type: cell-based, human; conditions: 72 h
Experimental: (§2) We tested the cytotoxicity of several antibiotic compounds, including peptides and nanoparticles, on the human embryonic kidney cell lines HEK-293, HK-2, and […]. The cells were stored in DMEM medium and incubated at 37 °C with 5% CO2 in a humidifying environment. Using the MTT (methylthiazolyldiphenyl-tetrazolium bromide) test, cell viability was evaluated. Following a 5 × 10^3 cell/mL seeding in 96-well plates, the cells were exposed to 100 μL of samples at varying concentrations (12.5–200 μM) during 72 h at 37 °C. Later, each well is loaded with MTT solution (5 mg/mL in PBS) at a volume of 10 μL. The plates were left in the dark for 4 h. After forming formazan crystals due to the action of mitochondrial reductases in living cells, the crystals were dissolved using a solubilizing solution (pH 4.7, 40% dimethylformamide, 2% glacial acetic acid, and 16% sodium dodecyl sulfate) were shaken at 150 rpm and incubated for an hour at 37 °C. Using graphical plot analysis, the IC50 value–the concentration that results in 50% cell death–was obtained by measuring the absorbance of the dissolved formazan at 570 nm. The average of three independent tests, each carried out in triplicate, was used to display the results.

[4] = system: HK-2 cells; assay: Cytotoxicity assay (MTT); assay type: cell-based
Experimental: as §2

[5] = system: THP-1; assay type: cell-based; conditions: 72 h
[6] = system: K. pneumoniae ATCCC700603; assay type: cell-based
Experimental: as §1

[7] = system: A. baumannii ATCC19606; assay type: cell-based
Experimental: as §1

[8] = system: P. aeruginosa ATCC27853; assay type: cell-based
Experimental: as §1

[9] = system: S. aureus ATCC700698; assay type: cell-based
Experimental: as §1

[10] = system: S. aureus ATCC25923; assay type: cell-based
Experimental: as §1

[11] = system: S. aureus ATCC29213; assay type: cell-based
Experimental: as §1

[12] = system: K. pneumoniae ATCC BAA-1705; assay type: cell-based
Experimental: as §1

[13] = system: A. baumannii ATCC BAA-747; assay type: cell-based
Experimental: as §1

[14] = system: S. aureus ATCC33592; assay type: cell-based
Experimental: as §1

[15] = system: E. faecalis ATCC 29212; assay type: cell-based
Experimental: as §1

[16] = system: CRAB isolate AB-10; assay type: cell-based, A. baumannii
Excerpt: (§3) The blood samples of patients from Kaohsiung Medical University were used to collect and cryopreserve all of the CRAB clinical isolates. Analytical graded chemicals and reagents were utilized throughout the investigation. The T2–02 peptide (MW 2646.27 Da) was custom-synthesized by Kelowna International Scientific Inc., 1,2-[…]-sn-glycero-3-phosphoethanolamine-N-[methoxy(polyethylene glycol)-2000] (ammonium salt) (DSPE-PEG2000, MW 2693.285 Da) was purchased from Laysan Bio Inc., 1,2-Dioleoyl-sn-glycero-3-phosphocholine (DOPC, MW 786.1 Da) was acquired from BroadPharm, and Poly-L-lysine hydrobromide (30–70 kDa) was sourced from Sigma-Aldrich.
as §1

[17] = system: CRAB isolate AB-06; assay type: cell-based, A. baumannii
Excerpt: as §3, §1

[18] = system: CRAB isolate AB-16; assay type: cell-based, A. baumannii
Excerpt: as §3, §1

[19] = system: CRAB isolate AB-09; assay type: cell-based, A. baumannii
Excerpt: as §3, §1

[20] = system: CRAB isolate AB-01; assay type: cell-based, A. baumannii
Excerpt: as §3, §1

[21] = system: CRAB isolate AB-11; assay type: cell-based, A. baumannii
Excerpt: as §3, §1

[22] = system: CRAB isolate AB-07; assay type: cell-based, A. baumannii
Excerpt: as §3, §1

[23] = system: CRAB isolate AB-08; assay type: cell-based, A. baumannii
Excerpt: as §3, §1

[24] = system: CRAB isolate AB-14; assay type: cell-based, A. baumannii
Excerpt: as §3, §1

[25] = system: CRAB isolate AB-04; assay type: cell-based, A. baumannii
Excerpt: as §3, §1

[26] = system: CRAB isolate AB-23; assay type: cell-based, A. baumannii
Excerpt: as §3, §1

[27] = system: CRAB isolate AB-03; assay type: cell-based, A. baumannii
Excerpt: as §3, §1

[28] = system: CRAB isolate AB-17; assay type: cell-based, A. baumannii
Excerpt: as §3, §1

[29] = system: CRAB isolate AB-24; assay type: cell-based, A. baumannii
Excerpt: as §3, §1

[30] = system: CRAB isolate AB-02; assay type: cell-based, A. baumannii
Excerpt: as §3, §1

[31] = system: CRAB isolate AB-12; assay type: cell-based, A. baumannii
Excerpt: as §3, §1

[32] = system: CRAB isolate AB-18; assay type: cell-based, A. baumannii
Excerpt: as §3, §1

[33] = system: CRAB isolate AB-20; assay type: cell-based, A. baumannii
Excerpt: as §3, §1

[34] = system: CRAB isolate AB-19; assay type: cell-based, A. baumannii
Excerpt: as §3, §1

[35] = system: CRAB isolate AB-21; assay type: cell-based, A. baumannii
Excerpt: as §3, §1

[36] = system: CRAB isolate AB-05; assay type: cell-based, A. baumannii
Excerpt: as §3, §1

[37] = system: CRAB isolate AB-22; assay type: cell-based, A. baumannii
Excerpt: as §3, §1

[38] = system: CRAB isolate AB-15; assay type: cell-based, A. baumannii
Excerpt: as §3, §1

[39] = system: CRAB isolate AB-13; assay type: cell-based, A. baumannii
Excerpt: as §3, §1

CC[C@H](C)[C@H](NC(=O)[C@H](CCCCN)NC(=O)CNC(=O)[C@H](CCCNC(=N)N)NC(=O)[C@H](CCCNC(=N)N)NC(=O)[C@H](CCCCN)NC(=O)[C@H](CC(C)C)NC(=O)[C@H](CC(C)C)NC(=O)[C@H](CCCNC(=N)N)NC(=O)[C@H](CCCCN)NC(=O)[C@H](Cc1c[nH]c2ccccc12)NC(=O)[C@H](CC(C)C)NC(=O)[C@H](C)N)C(=O)N[C@H](C(=O)N[C@@H](CC(C)C)C(=O)N[C@@H](CC(N)=O)C(=O)N[C@@H](CCC(=O)O)C(=O)N[C@@H](CCCNC(=N)N)C(=O)N[C@@H](CC(C)C)C(=O)N[C@@H](CCCNC(=N)N)C(=O)N[C@@H](CC(C)C)C(=O)O)[C@@H](C)CC [T2–02] (H-ALWKRLLKRRGKIILNERLRL-OH)
1101 µg/mL: IC50 HEK293 [3]
4 µg/mL: MIC [27] | MIC [39]
16 µg/mL: MIC [18] | MIC [31] | MIC [32]
512 µg/mL: MIC [12]
30.9: Cytotoxicity HK-2 related to PMB [4]
256 µg/mL: MIC [9] | MIC [10] | MIC [14]
8 µg/mL: MIC [7] | MIC [8] | MIC [13] | MIC [16] | MIC [17] | MIC [19] | MIC [20] | MIC [21] | MIC [22] | MIC [23] | MIC [24] | MIC [25] | MIC [26] | MIC [28] | MIC [29] | MIC [30] | MIC [33] | MIC [34] | MIC [35] | MIC [36] | MIC [37] | MIC [38]
557 µg/mL: IC50 HK-2 ([4]; concentration causing 50% cell death, MTT, 72 h, 37 °C, average of three independent tests in triplicate)
64 µg/mL: MIC [2] | MIC [11] | MIC [15]
128 µg/mL: MIC [6]
866 µg/mL: IC50 THP-1 [5]
64 to 256 µg/mL: MIC against Gram-positive bacteria (range) [1]

Reference: publication PMC12284850, “In Silico Design of Antimicrobial Peptides against Carbapenem-Resistant Infections with Enhanced Activity by Nanoformulation” (ACS Applied Bio Materials, 2025)
